Consider 26 compounds from patent US11306078B2, “Piperidine CXCR7 receptor modulators” (IDORSIA PHARMACEUTICALS LTD., priority 2016, dated 2022).

This assay has as its target human chemokine receptor CXCR7 (Homo sapiens (Human), UniProt P25106). Nature of the assay: Tango CXCR7-bla U2OS beta-arrestin recruitment assay (beta-lactamase reporter, FRET), antagonism of CXCL12/SDF1-α.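 Note: compounds preincubated 15 min before CXCL12 addition, then 22 h at 37 °C, FRET emission ratio read with CCF4-AM substrate after 2 h.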 Format: cell-based. The note with it: antagonistic effect on CXCR7, Tango CXCR7-bla U2OS cells, CXCL12/SDF1-α at its EC80. (Arrestin recruitment assays detect the binding of arrestin to an activated receptor.)

human chemokine receptor CXCR7, sequence (P25106 whole entry): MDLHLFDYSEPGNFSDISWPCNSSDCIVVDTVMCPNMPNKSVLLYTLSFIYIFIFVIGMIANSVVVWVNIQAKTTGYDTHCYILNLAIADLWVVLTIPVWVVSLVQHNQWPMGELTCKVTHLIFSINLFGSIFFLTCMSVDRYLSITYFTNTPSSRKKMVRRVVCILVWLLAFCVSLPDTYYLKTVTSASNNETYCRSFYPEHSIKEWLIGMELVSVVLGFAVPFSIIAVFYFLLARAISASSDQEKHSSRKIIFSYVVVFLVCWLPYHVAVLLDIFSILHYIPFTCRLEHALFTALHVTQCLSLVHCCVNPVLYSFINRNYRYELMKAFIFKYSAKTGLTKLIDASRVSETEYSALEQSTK

Broadly, the IC50 is the concentration that inhibits the measured activity by half. A higher IC50 goes with a need for much substance. `O=C(N[C@@H]1CCN(CC2CC2)C[C@H]1C(=O)NCc1ncccn1)c1cc(-c2ccc(F)cc2F)on1` [Example 4.099] displayed an IC50 of 852 nM.

With `CC(C)(C)N1CC[C@@H](NC(=O)c2cc(-c3ccc(F)cc3F)on2)[C@H](C(=O)NC2(c3ncccn3)CC2)C1` [Example 4.101], it took 71 nM to reach half-maximal inhibition (IC50).

In turn, `CC(C)(C)N1CC[C@@H](NC(=O)c2cc(-c3ccc(F)cc3F)on2)[C@H](C(=O)NC2(c3ncccn3)CC2)C1` [Example 4.101a] showed an IC50 of 18 nM.

Compound `CC(C)(C)N1CC[C@H](NC(=O)c2cc(-c3ccc(F)cc3F)on2)[C@@H](C(=O)NC2(c3ncccn3)CC2)C1` [Example 4.101b] had a concentration for half-maximal inhibition (IC50) of 712 nM.

The compound `CC(C)(NC(=O)[C@H]1CN(CC2CC2)CC[C@@H]1NC(=O)c1cc(-c2ccc(F)cc2F)on1)c1ncccn1` [Example 4.102] gave an IC50 of 1 nM.

Turning to `O=C(N[C@H]1CCN(CC2CC2)C[C@@H]1C(=O)NC1(c2ncccn2)CC1)c1noc(-c2ccc(F)cc2)c1F` [Example 7.001, (3S,4S)-1-Cyclopropylmethyl-4-{[4-fluoro-5-(4-fluoro-phenyl)-isoxazole-3-carbonyl]-amino}-piperidine-3-carboxylic Acid (1-pyrimidin-2-yl-cyclopropyl)-amide], half-maximal inhibition (IC50) was put at 32 nM.

The compound `O=C(N[C@H]1CCN(CC2CC2)C[C@@H]1C(=O)NC1(c2ncccn2)CC1)c1nc(-c2ccc(F)cc2F)co1` [Example 7.01] registered a half-maximal inhibitory concentration (IC50) of 60 nM.

The compound `Cc1ccccc1-c1cc(C(=O)N[C@H]2CCN(CC3CC3)C[C@@H]2C(=O)NC2(c3ncccn3)CC2)no1` [Example 7.002, (3S,4S)-1-Cyclopropylmethyl-4-[(5-o-tolyl-isoxazole-3-carbonyl)-amino]-piperidine-3-carboxylic acid (1-pyrimidin-2-yl-cyclopropyl)-amide] had an IC50 of 308 nM.

The compound `Cc1ccc(-c2cc(C(=O)N[C@H]3CCN(CC4CC4)C[C@@H]3C(=O)NC3(c4ncccn4)CC3)no2)cc1C` [Example 7.003, (3S,4S)-1-Cyclopropylmethyl-4-{[5-(3,4-dimethyl-phenyl)-isoxazole-3-carbonyl]-amino}-piperidine-3-carboxylic acid (1-pyrimidin-2-yl-cyclopropyl)-amide] returned an IC50 of 210 nM.

Consider `O=C(N[C@H]1CCN(CC2CC2)C[C@@H]1C(=O)NC1(c2ncccn2)CC1)c1cn(-c2ccc(F)cc2F)nn1` [Example 7.004, (3S,4S)-1-Cyclopropylmethyl-4-{[1-(2,4-difluoro-phenyl)-1H-[1,2,3]triazole-4-carbonyl]-amino}-piperidine-3-carboxylic acid (1-pyrimidin-2-yl-cyclopropyl)-amide], for which the midpoint of inhibition, the IC50, lay at 64 nM.

In turn, `Cc1ccc(-c2cc(C(=O)N[C@H]3CCN(CC4CC4)C[C@@H]3C(=O)NC3(c4ncccn4)CC3)no2)c(C)c1` [Example 7.005, (3S,4S)-1-Cyclopropylmethyl-4-{[5-(2,4-dimethyl-phenyl)-isoxazole-3-carbonyl]-amino}-piperidine-3-carboxylic acid (1-pyrimidin-2-yl-cyclopropyl)-amide] had an IC50 of 36 nM.

`O=C(N[C@H]1CCN(CC2CC2)C[C@@H]1C(=O)NC1(c2ncccn2)CC1)c1cc(-c2ccc(F)cc2F)no1` [Example 7.006, (3S,4S)-1-Cyclopropylmethyl-4-{[3-(2,4-difluoro-phenyl)-isoxazole-5-carbonyl]-amino}-piperidine-3-carboxylic acid (1-pyrimidin-2-yl-cyclopropyl)-amide] gave an IC50 of 8 nM.

Compound `O=C(N[C@H]1CCN(CC2CC2)C[C@@H]1C(=O)NC1(c2ncccn2)CC1)c1ncc(-c2ccc(F)cc2)o1` [Example 7.007, (3S,4S)-1-Cyclopropylmethyl-4-{[5-(4-fluoro-phenyl)-oxazole-2-carbonyl]-amino}-piperidine-3-carboxylic acid (1-pyrimidin-2-yl-cyclopropyl)-amide] registered an IC50 of 140 nM.

On to `O=C(N[C@H]1CCN(CC2CC2)C[C@@H]1C(=O)NC1(c2ncccn2)CC1)c1noc(-c2ccc(F)cc2F)n1` [Example 7.008, (3S,4S)-1-Cyclopropylmethyl-4-{[5-(2,4-difluoro-phenyl)-[1,2,4]oxadiazole-3-carbonyl]-amino}-piperidine-3-carboxylic acid (1-pyrimidin-2-yl-cyclopropyl)-amide], for which the midpoint of inhibition, the IC50, lay at 51 nM.

Compound `N#Cc1ccc(-c2cc(C(=O)N[C@H]3CCN(CC4CC4)C[C@@H]3C(=O)NC3(c4ncccn4)CC3)no2)cc1` [Example 7.009, (3S,4S)-4-{[5-(4-Cyano-phenyl)-isoxazole-3-carbonyl]-amino}-1-cyclopropylmethyl-piperidine-3-carboxylic acid (1-pyrimidin-2-yl-cyclopropyl)-amide] displayed a half-maximal inhibitory concentration (IC50) of 240 nM.

Compound `O=C(N[C@H]1CCN(CC2CC2)C[C@@H]1C(=O)NC1(c2ncccn2)CC1)c1ncc(-c2ccc(F)cc2F)o1` [Example 7.011, (3S,4S)-1-Cyclopropylmethyl-4-{[5-(2,4-difluoro-phenyl)-oxazole-2-carbonyl]-amino}-piperidine-3-carboxylic acid (1-pyrimidin-2-yl-cyclopropyl)-amide] gave an IC50 of 78 nM.

With `O=C(N[C@H]1CCN(CC2CC2)C[C@@H]1C(=O)NC1(c2ncccn2)CC1)c1cn(-c2c(F)cc(F)cc2F)nn1` [Example 7.012, (3S,4S)-1-Cyclopropylmethyl-4-{[1-(2,4,6-trifluoro-phenyl)-1H-[1,2,3]triazole-4-carbonyl]-amino}-piperidine-3-carboxylic acid (1-pyrimidin-2-yl-cyclopropyl)-amide], the IC50 was found to be 356 nM.

On to `O=C(N[C@H]1CCN(CC2CC2)C[C@@H]1C(=O)NC1(c2ncccn2)CC1)c1cc(-c2ccc(F)c(F)c2)on1` [Example 7.013, (3S,4S)-1-Cyclopropylmethyl-4-{[5-(3,4-difluoro-phenyl)-isoxazole-3-carbonyl]-amino}-piperidine-3-carboxylic acid (1-pyrimidin-2-yl-cyclopropyl)-amide], for which half-maximal inhibition (IC50) required 252 nM.

In turn, `O=C(N[C@H]1CCN(CC2CC2)C[C@@H]1C(=O)NC1(c2ncccn2)CC1)c1cc(-c2ccc(F)cc2F)ns1` [Example 7.014, (3S,4S)-1-Cyclopropylmethyl-4-{[3-(2,4-difluoro-phenyl)-isothiazole-5-carbonyl]-amino}-piperidine-3-carboxylic acid (1-pyrimidin-2-yl-cyclopropyl)-amide] had an IC50 of 629 nM.

For the compound `O=C(N[C@H]1CCN(CC2CC2)C[C@@H]1C(=O)NC1(c2ncccn2)CC1)c1cc(-c2ccc(F)cc2F)sn1` [Example 7.015, (3S,4S)-1-Cyclopropylmethyl-4-{[5-(2,4-difluoro-phenyl)-isothiazole-3-carbonyl]-amino}-piperidine-3-carboxylic acid (1-pyrimidin-2-yl-cyclopropyl)-amide], the IC50 came to 201 nM.

For the compound `O=C(N[C@H]1CCN(CC2CC2)C[C@@H]1C(=O)NC1(c2ncccn2)CC1)c1nnc(-c2ccc(F)cc2F)s1` [Example 7.016, (3S,4S)-1-Cyclopropylmethyl-4-{[5-(2,4-difluoro-phenyl)-[1,3,4]thiadiazole-2-carbonyl]-amino}-piperidine-3-carboxylic acid (1-pyrimidin-2-yl-cyclopropyl)-amide], the IC50 is 2 nM.

In turn, `O=C(N[C@H]1CCN(CC2CC2)C[C@@H]1C(=O)NC1(c2ncccn2)CC1)c1cc(-c2ccccc2)on1` [Reference Example 3, (3S,4S)-1-Cyclopropylmethyl-4-[(5-phenyl-isoxazole-3-carbonyl)-amino]-piperidine-3-carboxylic Acid (1-pyrimidin-2-yl-cyclopropyl)-amide, reference compound] came in with an IC50 (geometric mean) of 1330 nM.

“(3R*,4R*)-1-Cyclohexyl-4-{[1-(2,4-difluoro-phenyl)-1H-[1,2,3]triazole-4-carbonyl]-amino}-piperidine-3-carboxylic acid ((1R*,2S*)-2-phenyl-cyclopropyl)-amide and (3R*,4R*)-1-Cyclohexyl-4-{[1-(2,4-difluoro-phenyl)-1H-[1,2,3]triazole-4-carbonyl]-amino}-piperidine-3-carboxylic acid ((1S*,2R*)-2-phenyl-cyclopropyl)-amide [Example 1.145]” registered an IC50 of 363 nM.

The compound “(3R*,4R*)-1-Cyclohexyl-4-{[3-(2,4-difluoro-phenyl)-isoxazole-5-carbonyl]-amino}-piperidine-3-carboxylic acid ((1S*,2R)-2-phenyl-cyclopropyl)-amide and (3R*,4R*)-1-Cyclohexyl-4-{[3-(2,4-difluoro-phenyl)-isoxazole-5-carbonyl]-amino}-piperidine-3-carboxylic acid ((1R*,2S*)-2-phenyl-cyclopropyl)-amide [Example 1.147]” showed an IC50 of 443 nM.

“(3R*,4R*)-1-Cyclopentyl-4-{[1-(2,4-difluoro-phenyl)-1H-[1,2,3]triazole-4-carbonyl]-amino}-piperidine-3-carboxylic acid ((1S*,2R*)-2-phenyl-cyclopropyl)-amide and (3R*,4R*)-1-Cyclopentyl-4-{[1-(2,4-difluoro-phenyl)-1H-[1,2,3]triazole-4-carbonyl]-amino}-piperidine-3-carboxylic acid ((1R*,2S*)-2-phenyl-cyclopropyl)-amide [Example 1.146]”: the IC50 is 904 nM.

Compound “(3R*,4R*)-1-Cyclopentyl-4-{[3-(2,4-difluoro-phenyl)-isoxazole-5-carbonyl]-amino}-piperidine-3-carboxylic acid ((1S*,2R*)-2-phenyl-cyclopropyl)-amide and (3R*,4R*)-1-Cyclopentyl-4-{[3-(2,4-difluoro-phenyl)-isoxazole-5-carbonyl]-amino}-piperidine-3-carboxylic acid ((1R*,2S*)-2-phenyl-cyclopropyl)-amide [Example 1.148]” had an IC50 of 769 nM.
